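Step 1: Grow cells in 96-well plates. Step 2: Expose to compound for 48 hours at 5 concentrations. Step 3: Interpolate endpoints linearly; if unreached, use highest concentration. GI50 is the concentration that inhibits growth by half. TGI is the concentration that stops growth completely.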
Tests used:
Assay in all cases: growth of human tumour cells (NCI), 48 h
[1] = system: HT29 colon
[2] = system: HCT-116 colon
[3] = system: HOP-62 NSCLC
[4] = system: COLO 205 colon
[5] = system: NCI/ADR-RES ovarian
[6] = system: RXF 393 renal
[7] = system: HL-60(TB) leukemia
[8] = system: NCI-H23 lung
[9] = system: SF-268 CNS
[10] = system: SK-MEL-28 melanoma

**Q.** Which GI50 [1] does the source give for CCN(c1cc(-c2ccc(CN3CCOCC3)cc2)cc(C(=O)NCc2c(C)cc(C)[nH]c2=O)c1C)C1CCOCC1 here?
**A.** 15.7 µM

**Q.** And the TGI [1]?
**A.** 35.6 µM

**Q.** And the GI50 [2]?
**A.** 18.5 µM

**Q.** What about the TGI [2] of the same molecule?
**A.** 40.3 µM

**Q.** What about the GI50 [3] of the same molecule?
**A.** 30.7 µM

**Q.** What about the TGI [3] of the same molecule?
**A.** 99.2 µM

**Q.** What about the GI50 [4] of the same molecule?
**A.** 18.1 µM

**Q.** And the TGI [4]?
**A.** 34.9 µM

**Q.** And the GI50 [5]?
**A.** 36.2 µM

**Q.** What about the TGI [5] of the same molecule?
**A.** > 100 µM

**Q.** And the GI50 [6]?
**A.** 16.5 µM

**Q.** What about the TGI [6] of the same molecule?
**A.** 44.7 µM

**Q.** What about the GI50 [7] of the same molecule?
**A.** 17.5 µM

**Q.** And the TGI [7]?
**A.** 56.2 µM

**Q.** And the GI50 [8]?
**A.** 59.4 µM

**Q.** And the TGI [8]?
**A.** > 100 µM

**Q.** And the GI50 [9]?
**A.** 26.2 µM

**Q.** What about the TGI [9] of the same molecule?
**A.** > 93.6 µM

**Q.** And the GI50 [10]?
**A.** 20.5 µM

**Q.** What about the TGI [10] of the same molecule?
**A.** 47.7 µM

**Q.** Which GI50 [1] does the source give for Cc1nc2ccc(NC(=O)CCNC(=O)CCCc3ccc(CC(C(=O)O)C(=O)O)cc3)cc2s1 here?
**A.** > 100 µM

**Q.** What about the TGI [1] of the same molecule?
**A.** > 100 µM

**Q.** And the GI50 [2]?
**A.** > 100 µM

**Q.** What about the TGI [2] of the same molecule?
**A.** > 100 µM

**Q.** What about the GI50 [3] of the same molecule?
**A.** > 100 µM

**Q.** What about the TGI [3] of the same molecule?
**A.** > 100 µM

**Q.** What about the GI50 [4] of the same molecule?
**A.** > 100 µM

**Q.** What about the TGI [4] of the same molecule?
**A.** > 100 µM

**Q.** And the GI50 [5]?
**A.** > 100 µM

**Q.** And the TGI [5]?
**A.** > 100 µM

**Q.** And the GI50 [6]?
**A.** > 100 µM

**Q.** What about the TGI [6] of the same molecule?
**A.** > 100 µM

**Q.** What about the GI50 [7] of the same molecule?
**A.** > 100 µM

**Q.** And the TGI [7]?
**A.** > 100 µM

**Q.** What about the GI50 [8] of the same molecule?
**A.** > 100 µM

**Q.** And the TGI [8]?
**A.** > 100 µM

**Q.** What about the GI50 [9] of the same molecule?
**A.** > 100 µM

**Q.** And the TGI [9]?
**A.** > 100 µM

**Q.** What about the GI50 [10] of the same molecule?
**A.** > 100 µM

**Q.** What about the TGI [10] of the same molecule?
**A.** > 100 µM

**Q.** Cc1c2c(c(C)c3c4c(oc13)CCCC4)C=NCC2 was tested. Which TGI [1] did it give?
**A.** 29 µM

**Q.** What about the TGI [2] of the same molecule?
**A.** 35.9 µM

**Q.** And the TGI [3]?
**A.** 60.6 µM

**Q.** What about the TGI [4] of the same molecule?
**A.** 48.5 µM

**Q.** And the TGI [5]?
**A.** 31.2 µM

**Q.** What about the TGI [6] of the same molecule?
**A.** 15.9 µM

**Q.** And the TGI [7]?
**A.** 43.4 µM

**Q.** And the TGI [8]?
**A.** 31.9 µM

**Q.** And the TGI [9]?
**A.** 41.2 µM

**Q.** And the TGI [10]?
**A.** 35.7 µM

**Q.** For COc1cc(C)c(C2NC(=O)c3ccccc3N2)cc1C (stereo not given), which TGI [1] is on record?
**A.** 13.6 µM

**Q.** And the TGI [2]?
**A.** 43.1 µM

**Q.** What about the TGI [3] of the same molecule?
**A.** > 97.1 µM

**Q.** What about the TGI [4] of the same molecule?
**A.** 4.64 µM

**Q.** And the TGI [5]?
**A.** 0.679 µM

**Q.** What about the TGI [6] of the same molecule?
**A.** 8.61 µM

**Q.** And the TGI [7]?
**A.** 0.396 µM

**Q.** And the TGI [8]?
**A.** > 70.2 µM

**Q.** And the TGI [9]?
**A.** > 100 µM

**Q.** And the TGI [10]?
**A.** > 100 µM

**Q.** For CN(C)CCSS(=O)(=O)O, which TGI [1] is on record?
**A.** > 100 µM

**Q.** What about the TGI [2] of the same molecule?
**A.** > 100 µM

**Q.** And the TGI [3]?
**A.** > 100 µM

**Q.** And the TGI [4]?
**A.** > 100 µM

**Q.** What about the TGI [5] of the same molecule?
**A.** > 100 µM

**Q.** What about the TGI [6] of the same molecule?
**A.** > 100 µM

**Q.** What about the TGI [7] of the same molecule?
**A.** > 100 µM

**Q.** What about the TGI [8] of the same molecule?
**A.** > 100 µM

**Q.** And the TGI [9]?
**A.** > 100 µM

**Q.** What about the TGI [10] of the same molecule?
**A.** > 100 µM

**Q.** What does the source list for O=C1CC(c2[nH]nc3ccccc23)C(=O)N1c1ccccc1 (stereo not given)?
**A.** TGI [1]: > 100 µM; TGI [2]: > 100 µM; TGI [3]: > 100 µM; TGI [4]: > 100 µM; TGI [5]: > 100 µM; TGI [6]: > 100 µM; TGI [7]: 70.4 µM; TGI [8]: > 100 µM; TGI [9]: > 100 µM; TGI [10]: > 100 µM

From PubChem BioAssay (NCI)
